Usually EC50 stands for the concentration at which the effect is half-maximal. A higher EC50 goes with weaker potency.

For the first test, the system named is HSV-2 G strain. Description: HSV-2 Antiviral Assay (Vero cells, cell viability). Type of test: cell-based. The settings on record: Human alphaherpesvirus 2, Vero, 120 h, Vero cells, 160 TCID50 HSV-2 G strain, 5 days, cell viability. In outline: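 Antiviral readout is survival of infected Vero cells: after 5 days at 37 °C with 160 TCID50 HSV-2 G strain plus serially diluted compound (8 points, 3-fold, 0.5% DMSO), WST-8 was added for 3 h and absorbance measured at 460/620 nm. Cells seeded at 1.0×10^4 per well.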
Consider `Cc1nc(N2CC(C)CN(c3ccc(-c4ccccc4)cc3)C2=O)sc1S(N)(=O)=O` (stereo not shown) [Compound 326], for which the concentration giving a half-maximal response (EC50) was below 100 nM.

Take `Cc1nc(N2C[C@H](C(C)(C)F)CN(c3ccc(-c4cc(F)ccc4F)cc3)C2=O)sc1S(N)(=O)=O` (single isomer, unassigned) [Compound 352]: the 50% effective concentration (EC50) is below 100 nM.

Take `Cc1nc(N2C[C@@H](C(C)(C)F)CN(c3ccc(-c4cc(F)ccc4F)cc3)C2=O)sc1S(N)(=O)=O` (single isomer, unassigned) [Compound 351]: the half-maximal effective concentration (EC50) is below 100 nM.

Take `Cc1nc(N2CCCN(c3ccc(-c4ccccc4F)cc3)C2=O)sc1S(C)(=N)=O` (stereo not shown) [Compound 142]: the half-maximal effective concentration (EC50) was 100 to 1000 nM.

For `Cc1nc(N2C[C@@H](C(F)F)CN(c3ccc(-c4cc(F)ccc4F)cc3)C2=O)sc1S(N)(=O)=O` (single isomer, unassigned) [Compound 370], the concentration for a half-maximal effect (EC50) is below 100 nM.

As to `COCCCCNS(=O)(=O)c1sc(N2CCCN(c3ccc(-c4cc(F)ccc4F)cc3)C2=O)nc1C` [Compound 390], the EC50 was below 100 nM.

With `Cc1nc(N2CCCN(c3ccc(-c4cccc5ccnn45)cc3)C2=O)sc1S(N)(=O)=O` [Compound 248], the EC50 is below 100 nM.

Molecule `COc1c(F)cc(F)cc1-c1ccc(N2CC(C(F)(F)F)CN(c3nc(C)c(S(N)(=O)=O)s3)C2=O)cc1` (stereo not shown) [Compound 372] showed an EC50 below 100 nM.

The molecule `Cc1nc(N2CCCCN(c3ccc(-c4cc(F)ccc4F)cc3)C2=O)sc1[S@](C)(=N)=O` (single isomer, unassigned) [Compound 427] displayed an EC50 below 100 nM.

The molecule `Cc1nc(N2CCCN(c3ccc(-c4cc(C#N)ccc4F)cc3)C2=O)sc1S(N)(=O)=O` [Compound 202] returned an EC50 below 100 nM.

Consider `CCCS(=N)(=O)c1sc(N2CCCN(c3ccc(-c4cc(F)cc(F)c4F)cc3)C2=O)nc1C` (stereo not shown) [Compound 423], for which the EC50 was below 100 nM.

For `Cc1nc(N2CCCN(c3ccc(-c4cc(F)ccc4F)cc3)C2=O)sc1S(=O)(=O)NCCCCCCCCCCO` [Compound 420], the EC50 was below 100 nM.

`COc1ccc(F)cc1-c1ccc(N2CC3(COC3)CN(c3nc(C)c(S(N)(=O)=O)s3)C2=O)cc1` [Compound 378] displayed an EC50 below 100 nM.

As for `Cc1nc(N2C[C@@H](C(C)(C)O)CN(c3ccc(-c4cc(F)ccc4F)cc3)C2=O)sc1S(N)(=O)=O` (single isomer, unassigned) [Compound 344], the EC50 was below 100 nM.

For the molecule `Cc1nc(N2CC[C@@H](C)N(c3ccc(-c4cc(F)ccc4F)cc3)C2=O)sc1S(N)(=O)=O` (single isomer, unassigned) [Compound 333], the half-maximal effective concentration (EC50) is below 100 nM.

Regarding `Cc1nc(N2CCCN(c3ccc(-c4ccc(F)c(Cl)c4)cc3)C2=O)sc1S(N)(=O)=O` [Compound 186], the EC50 lay in the range of 100 to 1000 nM.

`COC1CN(c2ccc(-c3cc(F)ccc3F)cc2)C(=O)N(c2nc(C)c(S(N)(=O)=O)s2)C1` (stereo not shown) [Compound 357, 2-(3-(2′,5′-difluoro-[1,1′-biphenyl]-4-yl)-5-methoxy-2-oxotetrahydropyrimidin-1(2H)-yl)-4-methylthiazole-5-sulfonamide] returned an EC50 of 1000 to 5000 nM.

The molecule `Cc1nc(N2CC(C)CN(c3ccc(-c4ccccc4F)cc3)C2=O)sc1S(N)(=O)=O` (stereo not shown) [Compound 315] came in with a 50% effective concentration (EC50) below 100 nM.

With `Cc1nc(N2CC(C(F)(F)F)CN(c3ccc(-c4cc(F)ccc4F)cc3)C2=O)sc1S(N)(=O)=O` (stereo not shown) [Compound 368], the EC50 was below 100 nM.

Molecule `COc1ccc(-c2ccc(N3CCCN(c4nc(C)c(S(N)(=O)=O)s4)C3=O)cc2)c2cnn(C)c12` [Compound 58] registered an EC50 below 100 nM.

The molecule `Cc1nc(N2CC(C)CN(c3ccc(-c4ccccc4Cl)cc3)C2=O)sc1S(N)(=O)=O` (stereo not shown) [Compound 321] had an EC50 below 100 nM.

The molecule `Cc1nc(N2CCCN(c3ccc(-c4cc(F)ccc4F)cc3)C2=O)sc1S(=O)(=O)Nc1ccc2cc[nH]c2c1` [Compound 407] had an EC50 of 100 to 1000 nM.

`NS(=O)(=O)c1sc(N2CCCN(c3ccc(-c4cc(F)ccc4F)cc3)C2=O)nc1CO` [Compound 440, 2-(3-(2′,5′-difluoro-[1,1′-biphenyl]-4-yl)-2-oxotetrahydropyrimidin-1(2H)-yl)-4-(hydroxymethyl)thiazole-5-sulfonamide] came in with an EC50 below 100 nM.

`COc1c(F)cc(F)cc1-c1ccc(N2CCCN(c3nc(C(F)(F)F)c(S(N)(=O)=O)s3)C2=O)cc1` [Compound 437] showed an EC50 below 100 nM.

For `COCCCNS(=O)(=O)c1sc(N2CCCN(c3ccc(-c4cc(F)ccc4F)cc3)C2=O)nc1C` [Compound 416], the EC50 was below 100 nM.

The molecule `Cc1cccc(-c2ccc(N3CCCN(c4nc(C)c(S(N)(=O)=O)s4)C3=O)cc2)n1` [Compound 184] yielded an EC50 below 100 nM.

For `Cc1nc(N2CCCN(c3ccc(-c4cccc5nc(N)sc45)cc3)C2=O)sc1S(N)(=O)=O` [Compound 69], the concentration for a half-maximal effect (EC50) is below 100 nM.

`Cc1nc(N2CCCN(c3ccc(-c4ccccc4C(F)(F)F)cc3)C2=O)sc1S(N)(=O)=O` [Compound 196]: the EC50 is below 100 nM.

In turn, `Cc1nc(N2C[C@H](C(N)=O)CN(c3ccc(-c4cc(F)ccc4F)cc3)C2=O)sc1S(N)(=O)=O` (single isomer, unassigned) [Compound 382] returned a concentration for a half-maximal effect (EC50) of 100 to 1000 nM.

`Cc1nc(N2C(=O)N(c3ccc(-c4cc(F)ccc4F)cc3)CC[C@@H]2C)sc1S(N)(=O)=O` (single isomer, unassigned) [Compound 109] returned an EC50 below 100 nM.

As for `Cc1nc(N2CCCN(c3ccc(-c4cc(F)cc5c(C)c(C#N)sc45)cc3)C2=O)sc1S(N)(=O)=O` [Compound 280], the half-maximal effective concentration (EC50) is 1000 to 5000 nM.

`COc1c(F)cc(F)cc1-c1ccc(N2CC(C(C)(C)O)CN(c3nc(C)c(S(N)(=O)=O)s3)C2=O)cc1` (stereo not shown) [Compound 345]: the EC50 fell in the range of 100 to 1000 nM.

`Cc1nc(N2CCCN(c3ccc(-c4ccccc4/C=C\C#N)cc3)C2=O)sc1S(N)(=O)=O` [Compound 21]: the EC50 fell in the range of 100 to 1000 nM.

Molecule `Cc1nc(N2CCCN(c3ccc(-c4cc(F)cc5cc(C(C)(C)O)sc45)cc3)C2=O)sc1S(N)(=O)=O` [Compound 281] came in with a concentration for a half-maximal effect (EC50) of 100 to 1000 nM.

For the molecule `Cc1nc2c(-c3ccc(N4CCCN(c5nc(C)c(S(N)(=O)=O)s5)C4=O)cc3)cccc2s1` [Compound 72], the EC50 is below 100 nM.

Molecule `Cc1nc(N2CCCN(c3ccc(-c4snc5c(F)cc(F)c(F)c45)cc3)C2=O)sc1S(N)(=O)=O` [Compound 308] yielded an EC50 of 100 to 1000 nM.

`Cc1nc(N2CCCN(c3ccc(-c4cc(C(C)(F)F)cs4)cc3)C2=O)sc1S(N)(=O)=O` [Compound 241]: the EC50 was 1000 to 5000 nM.

Molecule `COc1c(F)cc(F)cc1-c1ccc(N2C[C@@H](C(F)(F)F)CN(c3nc(C)c(S(N)(=O)=O)s3)C2=O)cc1` (single isomer, unassigned) [Compound 373] had a half-maximal effective concentration (EC50) below 100 nM.

`CN=S(C)(=O)c1sc(N2CCCN(c3ccc(-c4ccccc4F)cc3)C2=O)nc1C` (stereo not shown) [Compound 145] returned an EC50 of 100 to 1000 nM.

`Cc1nc(N2CCCN(c3ccc(-c4cc(F)cc5c4c(F)cn5C)cc3)C2=O)sc1S(N)(=O)=O` [Compound 295]: the half-maximal effective concentration (EC50) was below 100 nM.

`Cc1nc(N2CCCN(c3ccc(-c4cc(C(F)(F)F)cc5c4cnn5C)cc3)C2=O)sc1S(N)(=O)=O` [Compound 287] returned an EC50 below 100 nM.

`Cc1nc(N2CCCN(c3ccc(-c4cc(C(F)(F)F)cc5nn(C)cc45)cc3)C2=O)sc1S(N)(=O)=O` [Compound 289] showed a concentration giving a half-maximal response (EC50) of 1000 to 5000 nM.

The same test, now with this note: Vero cells, 160 TCID50 HSV-2 G strain, 5 days, cell viability.
`Cc1nc(N2C[C@H](C)CN(c3ccc(-c4ccccc4F)cc3)C2=O)sc1S(N)(=O)=O` [Compound 324] had an EC50 below 100 nM.

The values are drawn from patent US20260103471A1, “CYCLIC UREA THIAZOLYL COMPOUNDS FOR TREATMENT OF HSV” (Assembly Biosciences, Inc., priority 2022, published 2026).
